Biological target: T1, Interleukin-1 receptor-associated kinase 4 (Homo sapiens, UniProt Q9NWZ3)
T1 sequence (Q9NWZ3 whole entry): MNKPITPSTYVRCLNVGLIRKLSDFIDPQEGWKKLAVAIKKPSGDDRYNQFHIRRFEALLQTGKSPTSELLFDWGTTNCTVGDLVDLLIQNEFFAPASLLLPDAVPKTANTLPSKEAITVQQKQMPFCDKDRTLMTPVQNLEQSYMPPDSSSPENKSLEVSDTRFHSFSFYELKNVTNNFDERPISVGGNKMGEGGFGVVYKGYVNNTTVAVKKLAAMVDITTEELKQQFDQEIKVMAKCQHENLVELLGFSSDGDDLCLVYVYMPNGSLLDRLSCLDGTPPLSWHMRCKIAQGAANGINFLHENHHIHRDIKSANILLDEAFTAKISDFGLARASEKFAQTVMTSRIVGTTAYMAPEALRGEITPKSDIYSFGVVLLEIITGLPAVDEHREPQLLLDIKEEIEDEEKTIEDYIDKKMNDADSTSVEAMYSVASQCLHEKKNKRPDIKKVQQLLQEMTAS
Assay: Inhibition of IRAK4 (unknown origin) using FL- IPTSPITTTYFFFKKK peptide as substrate in presence of ATP incubated for 60 mins by fluorescence assay

SMILES: CC(C)Nc1c(C(=O)NCCC2CCNC2)cnc2c1[nH]c1cc(C#N)ccc12 (stereo unspecified)
- IC50: 1.9 nM

Source: ChEMBL document CHEMBL5038673, “Novel Tricyclic Heteroaryl Compounds as IRAK4 Inhibitors for Treating Cancer, Autoimmune and Inflammatory Diseases” (ACS Med Chem Lett, 2022)
